Assay results from patent publication US5580870A, “Quinazoline derivatives” (Zeneca Limited, priority 1992, dated 1996).
Read-outs that look alike come from different tables or passages of the source.

Tests used:
[1] = test system: liver hepatocyte growth; experiment: Test (c): in vivo inhibition of TGFα-stimulated liver hepatocyte growth in male rats (BrdU uptake); design: species or system rat; conditions: for ED50: Rattus norvegicus, Hepatocyte, read-out: ED50 in Test (c), inhibition of liver hepatocyte proliferation
Procedure: (c) An in vivo assay in a group of male rats which determines the ability of a test compound (usually administered orally as a ball-milled suspension in 0.5% polysorbate) to inhibit the stimulation of liver hepatocyte growth caused by the administration of the growth factor TGFα (400 μg/kg subcutaneously, usually dosed twice, 3 and 7 hours respectively after the administration of the test compound).
Cell-growth in the control and test animals is determined as follows:
On the morning of the day after the dosing of the test compound (or 0.5% polysorbate in the control group), the animals are dosed with bromodeoxyuridine (BrdU; 100 mg/kg intraperitoneally). The animals are killed four hours later and the livers are excised. […] Further tests were carried out using a range of doses of the test compounds to allow the calculation of an approximate ED50 value for the inhibition of liver hepatocyte proliferation as determined by inhibition of the uptake of BrdU.

[2] = test system: KB cells; experiment: Test (b): in vitro inhibition of growth of human naso-pharyngeal cancer cell line KB (EGF, MTT); assay type: cell-based; conditions: 72 h, read-out: IC50 in Test (b), inhibition of KB cell growth
Procedure: (b) An in vitro assay which determines the ability of a test compound to inhibit the growth of the human naso-pharyngeal cancer cell line KB.
KB cells were seeded into wells at a density of 1×10^4 -1.5×10^4 cells per well and grown for 24 hours in DMEM supplemented with 5% FCS (charcoal-stripped). Cell growth was determined after incubation for 3 days by the extent of metabolism of MTT tetrazolium dye to furnish a bluish colour. Cell growth was then determined in the presence of EGF (10 ng/ml) or in the presence of EGF (10 ng/ml) and a test compound at a range of concentrations. An IC50 value could then be calculated.

[3] = target: T1, receptor tyrosine kinase (Homo sapiens, UniProt P00533); experiment: Test (a): in vitro receptor tyrosine kinase inhibition (enzyme from A-431 cells, 32P-ATP/peptide phosphorylation, with EGF); assay type: biochemical
T1 construct: The supernatant, containing solubilised receptor tyrosine kinase, was stored in liquid nitrogen; endogenous in cells; host or cells: A-431 cells (human vulval carcinoma), solubilised membrane fraction
Procedure: A-431 cells were grown to confluence using Dulbecco's modified Eagle's medium (DMEM) containing 5% fetal calf serum (FCS). The obtained cells were homogenised in a hypotonic borate/EDTA buffer at pH 10.1. The homogenate was centrifuged at 400 g for 10 minutes at 0°-4° C. The supernatant was centrifuged at 25,000 g for 30 minutes at 0°-4° C. The pelleted material was suspended in 30 mM Hepes buffer at pH 7.4 containing 5% glycerol, 4 mM benzamidine and 1% Triton X-100, stirred for 1 hour at 0°-4° C., and recentrifuged at 100,000 g for 1 hour at 0°-4° C. The supernatant, containing solubilised receptor tyrosine kinase, was stored in liquid nitrogen.
For test purposes 40 μl of the enzyme solution so obtained was added to a mixture of 400 μl of a mixture of 150 mM Hepes buffer at pH 7.4, 500 μM sodium orthovanadate, 0.1% Triton X-100, 10% glycerol, 200 μl water, 80 μl of 25 mM DTT and 80 μl of a mixture of 12.5 mM manganese chloride, 125 mM magnesium chloride and distilled water. There was thus obtained the test enzyme solution. […]
The test compound/EGF mixture solution (5 μl) was added to the test enzyme solution (10 μl) and the mixture was incubated at 0°-4° C. for 30 minutes. […] Radioactivity present in the filter paper was measured using a liquid scintillation counter (Sequence A). […]
Receptor tyrosine kinase inhibition was calculated as follows: [formula]

[4] = test system: human mammary carcinoma which expresses epidermal growth factor (EGF) receptor tyrosine kinase; conditions: athymic nude mice; Toi et al., 1990; cited from earlier work
[5] = test system: carcinoma which does not express EGF receptor tyrosine kinase; conditions: Toi et al., 1990; cited from earlier work
[6] = male rats, usually oral, TGFα 400 μg/kg subcutaneously, BrdU uptake

T1 sequence (P00533 25-1210): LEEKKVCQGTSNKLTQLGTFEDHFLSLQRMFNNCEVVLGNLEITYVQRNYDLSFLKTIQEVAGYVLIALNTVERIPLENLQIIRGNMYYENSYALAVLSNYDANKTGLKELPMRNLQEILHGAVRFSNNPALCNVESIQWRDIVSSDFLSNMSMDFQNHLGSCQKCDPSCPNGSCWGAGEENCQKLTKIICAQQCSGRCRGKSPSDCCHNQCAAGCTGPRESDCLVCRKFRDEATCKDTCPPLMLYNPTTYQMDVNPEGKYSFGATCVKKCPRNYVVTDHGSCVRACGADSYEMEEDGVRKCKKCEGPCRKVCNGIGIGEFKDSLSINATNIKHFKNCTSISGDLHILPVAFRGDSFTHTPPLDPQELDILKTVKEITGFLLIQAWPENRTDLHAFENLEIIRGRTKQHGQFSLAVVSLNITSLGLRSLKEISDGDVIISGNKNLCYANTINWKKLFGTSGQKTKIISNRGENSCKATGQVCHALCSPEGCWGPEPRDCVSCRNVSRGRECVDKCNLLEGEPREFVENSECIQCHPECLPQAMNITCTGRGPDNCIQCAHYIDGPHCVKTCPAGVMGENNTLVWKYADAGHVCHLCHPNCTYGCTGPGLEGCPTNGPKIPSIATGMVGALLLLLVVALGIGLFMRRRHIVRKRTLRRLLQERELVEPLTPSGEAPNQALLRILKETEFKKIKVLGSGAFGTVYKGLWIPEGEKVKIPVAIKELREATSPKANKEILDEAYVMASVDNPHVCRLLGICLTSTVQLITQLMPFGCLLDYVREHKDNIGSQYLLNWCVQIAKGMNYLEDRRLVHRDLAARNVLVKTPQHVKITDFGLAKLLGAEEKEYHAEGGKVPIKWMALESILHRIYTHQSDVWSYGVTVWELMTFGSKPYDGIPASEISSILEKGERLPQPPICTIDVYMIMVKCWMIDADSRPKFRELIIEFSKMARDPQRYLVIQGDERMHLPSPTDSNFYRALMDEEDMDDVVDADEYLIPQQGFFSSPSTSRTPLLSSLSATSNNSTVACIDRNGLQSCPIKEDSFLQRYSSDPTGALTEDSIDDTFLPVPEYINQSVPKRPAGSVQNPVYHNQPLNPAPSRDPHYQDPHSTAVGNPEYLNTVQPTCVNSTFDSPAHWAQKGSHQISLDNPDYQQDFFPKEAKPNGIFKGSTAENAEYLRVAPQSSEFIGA
T1 sequence (P01133 971-1023 partner limits assumed): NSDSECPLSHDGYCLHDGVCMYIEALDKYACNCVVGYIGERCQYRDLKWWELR

Compound | IC50 ([2]; EGF (10 ng/ml), 3 days, MTT) | IC50 [3] | ED50 [1, 6] | further results
TGFα: the growth factor TGFα [reference compound] |  |  |  | stimulation of liver hepatocyte growth ([1]; control group of rats, TGFα 400 μg/kg subcutaneously, on average): 5 fold
COc1cc2ncnc(Nc3ccc4c(c3)CCC4)c2cc1OC [6,7-dimethoxy-4-(5-indanylamino)quinazoline] |  |  |  | IC50 [2]: 0.65 µM; ED50 ([1]; po): 1 to 5 mg/kg
O=CN/C=C/c1cc(O)ccc1O [erbstatin] |  |  |  | effect on growth of transplanted human mammary carcinoma expressing EGF receptor tyrosine kinase [4]: specifically attenuates the growth; effect on growth of another carcinoma which does not express EGF receptor tyrosine kinase [5]: without effect

The next lines start with results.

IC50 ([2]; EGF (10 ng/ml), 3 days, MTT) | IC50 [3] | Compound | ED50 [1, 6] | further results
1.8 µM | 0.06 µM | COc1cc2ncnc(Nc3cccc4ncccc34)c2cc1OC [6,7-dimethoxy-4-(5-quinolylamino)quinazoline] | ~2 mg/kg | 
0.4 µM | 0.001 µM | COc1cc2ncnc(Nc3ccc4[nH]ccc4c3)c2cc1OC [6,7-dimethoxy-4-(5-indolylamino)quinazoline] | 1 to 5 mg/kg | 
